Experimental data reported in ChEMBL document CHEMBL1201862, “PubChem BioAssay data set” (2004).
The source made the active and inactive calls.

How the values were obtained:
[1] = tested on: Vero; experiment: cells; assay type: functional, cell-based; settings: Chlorocebus sabaeus
[2] = biological target: Delta-type opioid receptor (Homo sapiens, UniProt P41143); experiment: Counterscreen for agonists of heterodimerization of the mu 1 (OPRM1) and delta 1 (OPRD1) opioid receptors: Luminescence-based cell-based high throughput dose response assay to identify agonists of OPRD1 homodimerization. [Related pubchem assays (depositor defined):AID504326, AID504355, AID504692, AID504904, AID504905]; assay type: functional
[3] = biological target: Mu-type opioid receptor (Homo sapiens, UniProt P35372); experiment: Counterscreen for agonists of heterodimerization of the mu 1 (OPRM1) and delta 1 (OPRD1) opioid receptors: Luminescence-based cell-based high throughput dose response assay to identify agonists of OPRM1 homodimerization.; assay type: functional;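 further: U2OS cells expressing OPRM1 and beta-arrestin as split beta-galactosidase partners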
[4] = biological target: 5-hydroxytryptamine receptor 5A (Homo sapiens, UniProt P47898); experiment: Counterscreen for agonists of OPRM1-OPRD1 heterodimerization: luminescence-based cell-based high throughput dose response assay to identify agonists of 5-hydroxytryptamine (serotonin) 5A receptor (HTR5A). [Related pubchem assays (depositor defined):AID504326, AID504355, AID504692, AID504904, AID504905]; assay type: functional
[5] = tested on: Vero; experiment: cells; assay type: functional; settings: Chlorocebus sabaeus
[6] = HepG2 cell cytotoxicity, dose response, cytotoxicity control, ATP luminescence, cherry-pick, activator set 2 (AID 1053143); assay type: functional, cell-based
[7] = biological target: T1, Cytochrome P450 1A2 (Homo sapiens, UniProt P05177);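 further: PubChem cytochrome P450 panel assay, CYP1A2 panel member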
T1 sequence (P05177 whole entry): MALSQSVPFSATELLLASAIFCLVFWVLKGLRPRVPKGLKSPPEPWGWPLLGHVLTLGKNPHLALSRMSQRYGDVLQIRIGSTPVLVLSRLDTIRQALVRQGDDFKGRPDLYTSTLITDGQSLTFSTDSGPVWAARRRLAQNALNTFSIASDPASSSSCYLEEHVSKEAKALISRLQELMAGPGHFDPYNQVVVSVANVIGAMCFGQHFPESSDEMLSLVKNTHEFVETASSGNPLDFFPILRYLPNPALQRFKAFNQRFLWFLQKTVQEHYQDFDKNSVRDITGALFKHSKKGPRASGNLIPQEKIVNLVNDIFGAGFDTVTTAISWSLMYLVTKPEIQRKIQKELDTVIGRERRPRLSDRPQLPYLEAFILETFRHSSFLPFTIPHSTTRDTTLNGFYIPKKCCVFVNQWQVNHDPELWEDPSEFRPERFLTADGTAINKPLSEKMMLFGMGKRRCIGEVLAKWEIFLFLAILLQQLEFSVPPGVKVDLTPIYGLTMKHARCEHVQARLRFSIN

[8] = biological target: Cytochrome P450 2C9 (Homo sapiens, UniProt P11712)
[9] = biological target: T2, RNA-binding protein pos-1 (Caenorhabditis elegans, UniProt G5EF15); experiment: inhibitors of POS-1/mex-3 RNA binding, dose response, biochemical, fluorescence polarization (AID 1964);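 further: purified POS-1 fused to maltose binding protein made in E. coli; potency of compounds blocking POS-1 binding to fluorescent RNA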
T2 sequence (G5EF15 whole entry): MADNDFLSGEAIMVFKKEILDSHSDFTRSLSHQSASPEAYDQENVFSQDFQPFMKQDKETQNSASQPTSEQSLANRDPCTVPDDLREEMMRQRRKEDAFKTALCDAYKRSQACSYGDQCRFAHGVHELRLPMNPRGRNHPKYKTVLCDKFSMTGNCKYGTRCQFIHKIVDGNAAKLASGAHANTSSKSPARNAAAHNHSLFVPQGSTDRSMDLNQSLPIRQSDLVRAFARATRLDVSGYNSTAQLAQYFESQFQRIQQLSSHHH

[10] = biological target: T3, Zinc finger protein mex-5 (Caenorhabditis elegans, UniProt Q9XUB2); experiment: MEX-5/TCR-2 RNA interaction inhibitors, dose response, biochemical, C. elegans, fluorescence polarization (AID 1960)
T3 sequence (Q9XUB2 whole entry): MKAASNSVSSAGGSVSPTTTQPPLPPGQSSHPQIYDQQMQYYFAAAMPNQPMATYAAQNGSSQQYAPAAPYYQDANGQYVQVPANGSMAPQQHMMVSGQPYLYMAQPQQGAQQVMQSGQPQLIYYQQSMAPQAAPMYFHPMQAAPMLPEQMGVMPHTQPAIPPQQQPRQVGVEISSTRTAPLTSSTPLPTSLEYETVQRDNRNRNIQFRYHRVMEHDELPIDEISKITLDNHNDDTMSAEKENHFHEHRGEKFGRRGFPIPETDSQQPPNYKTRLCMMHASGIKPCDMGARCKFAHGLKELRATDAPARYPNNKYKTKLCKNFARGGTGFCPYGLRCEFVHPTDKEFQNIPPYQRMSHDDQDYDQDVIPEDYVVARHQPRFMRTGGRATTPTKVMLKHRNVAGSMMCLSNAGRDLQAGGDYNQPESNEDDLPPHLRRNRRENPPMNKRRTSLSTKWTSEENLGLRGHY

[11] = biological target: Intestinal-type alkaline phosphatase (Mus musculus, UniProt P24822); experiment: PubChem AID 488785; assay type: functional
[12] = biological target: T4, Alkaline phosphatase, tissue-nonspecific isozyme (Homo sapiens, UniProt P05186); experiment: TNAP enzyme inhibition by screening hits, dose response, selectivity assay for mouse IAP inhibitor project, biochemical, human TNAP, uHTS hits (AID 488906); assay type: functional
T4 sequence (P05186 whole entry): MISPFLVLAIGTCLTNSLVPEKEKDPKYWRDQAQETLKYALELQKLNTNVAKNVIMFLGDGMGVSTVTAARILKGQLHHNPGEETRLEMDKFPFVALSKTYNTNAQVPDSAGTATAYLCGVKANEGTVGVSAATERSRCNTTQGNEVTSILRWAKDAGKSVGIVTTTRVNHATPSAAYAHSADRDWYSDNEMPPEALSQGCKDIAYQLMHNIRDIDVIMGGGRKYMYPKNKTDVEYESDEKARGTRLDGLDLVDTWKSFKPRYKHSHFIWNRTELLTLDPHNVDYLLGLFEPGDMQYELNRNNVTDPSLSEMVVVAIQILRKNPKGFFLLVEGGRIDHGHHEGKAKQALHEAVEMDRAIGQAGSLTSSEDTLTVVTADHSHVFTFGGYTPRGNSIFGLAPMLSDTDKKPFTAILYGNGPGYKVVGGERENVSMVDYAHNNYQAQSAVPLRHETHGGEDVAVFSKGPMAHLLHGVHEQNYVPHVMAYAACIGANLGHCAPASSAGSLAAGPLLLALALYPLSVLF

[13] = biological target: Intestinal-type alkaline phosphatase (Homo sapiens, UniProt P09923); experiment: inhibition of human intestinal alkaline phosphatase – biochemical, dose response (AID 488876); assay type: functional
[14] = biological target: Genome polyprotein (dengue virus type 2, UniProt P29990); experiment: Dengue-2 NS5 methyltransferase inhibitors, primary screen, biochemical, confirmation dose response (AID 588689); assay type: functional
[15] = biological target: DNA (cytosine-5)-methyltransferase 1 (Homo sapiens, UniProt P26358); experiment: DNMT1 methyltransferase inhibitors, confirmation, biochemical, fluorescent molecular beacon (AID 602386); assay type: functional
[16] = biological target: T5, CAAX prenyl protease 2 (Saccharomyces cerevisiae S288c, UniProt Q03530); assay type: biochemical
T5 sequence (Q03530 whole entry): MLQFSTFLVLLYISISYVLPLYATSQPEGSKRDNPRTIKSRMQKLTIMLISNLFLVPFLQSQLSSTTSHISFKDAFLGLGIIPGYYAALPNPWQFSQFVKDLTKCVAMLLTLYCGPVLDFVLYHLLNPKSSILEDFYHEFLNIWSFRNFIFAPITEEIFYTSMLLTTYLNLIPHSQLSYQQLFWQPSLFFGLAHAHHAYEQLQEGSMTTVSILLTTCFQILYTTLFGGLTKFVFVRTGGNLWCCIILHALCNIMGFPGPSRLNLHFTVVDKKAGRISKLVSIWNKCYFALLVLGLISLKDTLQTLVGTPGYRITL

[17] = biological target: CAAX prenyl protease 1 (Saccharomyces cerevisiae S288c, UniProt P47154); experiment: Ste24 protease inhibitors, dose response, biochemical, S. cerevisiae, plate reader, cherry-pick (AID 488815)
[18] = biological target: T6, Microphthalmia-associated transcription factor (Homo sapiens, UniProt O75030); experiment: TRPM1 promoter luciferase signal decrease, dose response, MITF inhibitor project, cell-based, SK-MEL-5, cherry-picked, set 3 (AID 493073); assay type: functional
T6 sequence (O75030 whole entry): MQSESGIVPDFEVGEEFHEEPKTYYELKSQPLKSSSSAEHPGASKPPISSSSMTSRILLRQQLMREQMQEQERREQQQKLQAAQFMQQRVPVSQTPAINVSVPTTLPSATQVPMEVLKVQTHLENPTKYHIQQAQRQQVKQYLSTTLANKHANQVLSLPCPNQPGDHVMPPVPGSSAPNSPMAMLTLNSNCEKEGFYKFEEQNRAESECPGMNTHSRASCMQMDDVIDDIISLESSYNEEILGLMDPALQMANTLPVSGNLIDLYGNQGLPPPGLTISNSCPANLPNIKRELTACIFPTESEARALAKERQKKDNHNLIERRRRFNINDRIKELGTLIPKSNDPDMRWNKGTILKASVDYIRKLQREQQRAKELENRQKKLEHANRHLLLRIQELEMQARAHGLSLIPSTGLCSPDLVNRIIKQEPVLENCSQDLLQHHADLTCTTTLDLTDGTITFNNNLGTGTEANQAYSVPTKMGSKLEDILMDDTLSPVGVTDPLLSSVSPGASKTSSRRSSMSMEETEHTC

[19] = tested on: A-375; experiment: A375 melanoma cell viability reduction, dose response, counter-screen for MITF modulator project, cherry-pick samples, set 2 (AID 540335); assay type: functional, cell-based; settings: Homo sapiens
[20] = biological target: CAAX prenyl protease 2 (Homo sapiens, UniProt Q9Y256); experiment: human Rce1 protease inhibitors, dose response, biochemical, yeast membranes, quenched-peptide fluorescence, cherry-pick (AID 588849)
[21] = growth suppression of PTEN-null colon cells, dose response, cell-based, HCT116 PTEN knockout (AID 1047); assay type: functional;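 further: HCT116 colon tumor cells with PTEN knocked out; cells exposed to compound for 60 hours before readout; potency for loss of cell viability measured by luminescence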
[22] = growth suppression of beta-catenin-knockout colon cells, dose response, cell-based, HCT116, human colon tumor (AID 1045); assay type: functional;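 further: HCT116 colon tumor cells with beta catenin knocked out; cells exposed to compound for 60 hours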
[23] = biological target: Heat shock protein HSP 90-alpha (Homo sapiens, UniProt P07900); assay type: functional, organism-based
[24] = tested on: A-375; experiment: MITF: Counter assay: A375 proliferation Measured in Cell-Based System Using Plate Reader - 2084-03_Inhibitor_Dose_DryPowder_Activity. [Related pubchem assays (depositor defined):AID488944]; assay type: functional; settings: Homo sapiens
[25] = inhibitors of intracellular T. cruzi replication, confirmation, NIH3T3 host cells, beta-gal luminescence (AID 2044); assay type: functional, cell-based;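 further: intracellular parasites grown in NIH/3T3 mouse fibroblasts as host cells; luminescent beta-galactosidase reporter signal from transgenic T. cruzi replicating inside host cells; inhibitors lower the luminescence signal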
[26] = cytotoxicity toward NIH3T3 fibroblasts, dose response, counter-screen, cell-based, ATP luminescence, mouse fibroblasts (AID 2010); assay type: functional;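 further: cells exposed to compound for about 90 hours before reading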
[27] = Shn3 3'UTR reporter inhibitors, dose response, cell-based, Clone20 osteoblasts, firefly luciferase, cherry-picked (AID 624132); assay type: functional;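 further: firefly luciferase luminescence from reporter carrying the Shn3 3'UTR in osteoblasts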
[28] = HepG2 cell cytotoxicity, dose response, cytotoxicity control for Shn3 inhibitor project, CellTiter-Glo, cherry-picked (AID 624134); assay type: functional, cell-based
[29] = biological target: Bifunctional protein GlmU (Mycobacterium tuberculosis, UniProt P9WMN3); experiment: Inhibitors of Mycobacterial Glucosamine-1-phosphate acetyl transferase (GlmU). Secondary screen.; parameters: species or system Mycobacterium tuberculosis H37Rv
[30] = biological target: Induced myeloid leukemia cell differentiation protein Mcl-1 (Homo sapiens, UniProt Q07820); assay type: functional
[31] = biological target: Beta-galactosidase (Escherichia coli, UniProt Q8VNN2); experiment: PubChem AID 485352; assay type: functional
[32] = biological target: Type-1 angiotensin II receptor (Homo sapiens, UniProt P30556); experiment: AT1 receptor antagonists, dose response, selectivity assay for APJ receptor antagonist project, cell-based, uHTS hits (AID 463214); assay type: functional;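 further: antagonist potency against angiotensin II stimulated AT1 response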
Chain of Type-1 angiotensin II receptor (P30556 whole entry): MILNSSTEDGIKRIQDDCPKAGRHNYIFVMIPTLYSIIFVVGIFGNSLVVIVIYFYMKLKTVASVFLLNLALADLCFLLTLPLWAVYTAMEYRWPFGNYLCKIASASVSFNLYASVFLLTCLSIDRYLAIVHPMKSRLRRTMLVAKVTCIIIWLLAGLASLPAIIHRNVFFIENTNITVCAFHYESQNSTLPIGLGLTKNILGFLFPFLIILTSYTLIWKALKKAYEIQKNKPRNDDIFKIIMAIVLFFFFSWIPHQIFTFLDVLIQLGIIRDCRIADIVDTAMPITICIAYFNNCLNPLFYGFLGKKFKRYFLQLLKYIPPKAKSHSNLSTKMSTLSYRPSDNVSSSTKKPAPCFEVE

Chain of Intestinal-type alkaline phosphatase (Homo sapiens, UniProt P09923) (P09923 whole entry): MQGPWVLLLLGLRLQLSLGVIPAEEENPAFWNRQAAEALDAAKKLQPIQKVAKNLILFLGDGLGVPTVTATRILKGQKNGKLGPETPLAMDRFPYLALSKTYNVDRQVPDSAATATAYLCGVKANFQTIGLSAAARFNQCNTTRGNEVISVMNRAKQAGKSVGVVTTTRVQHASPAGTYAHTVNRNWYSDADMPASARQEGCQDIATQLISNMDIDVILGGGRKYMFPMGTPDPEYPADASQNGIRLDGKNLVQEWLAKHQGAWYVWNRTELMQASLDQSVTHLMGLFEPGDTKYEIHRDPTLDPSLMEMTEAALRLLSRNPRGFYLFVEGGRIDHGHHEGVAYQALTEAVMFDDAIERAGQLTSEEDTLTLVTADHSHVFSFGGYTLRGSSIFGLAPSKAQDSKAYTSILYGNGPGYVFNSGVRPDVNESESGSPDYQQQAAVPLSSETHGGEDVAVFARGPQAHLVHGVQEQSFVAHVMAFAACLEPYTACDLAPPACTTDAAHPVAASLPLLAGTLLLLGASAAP
Chain of Intestinal-type alkaline phosphatase (Mus musculus, UniProt P24822) (P24822 whole entry): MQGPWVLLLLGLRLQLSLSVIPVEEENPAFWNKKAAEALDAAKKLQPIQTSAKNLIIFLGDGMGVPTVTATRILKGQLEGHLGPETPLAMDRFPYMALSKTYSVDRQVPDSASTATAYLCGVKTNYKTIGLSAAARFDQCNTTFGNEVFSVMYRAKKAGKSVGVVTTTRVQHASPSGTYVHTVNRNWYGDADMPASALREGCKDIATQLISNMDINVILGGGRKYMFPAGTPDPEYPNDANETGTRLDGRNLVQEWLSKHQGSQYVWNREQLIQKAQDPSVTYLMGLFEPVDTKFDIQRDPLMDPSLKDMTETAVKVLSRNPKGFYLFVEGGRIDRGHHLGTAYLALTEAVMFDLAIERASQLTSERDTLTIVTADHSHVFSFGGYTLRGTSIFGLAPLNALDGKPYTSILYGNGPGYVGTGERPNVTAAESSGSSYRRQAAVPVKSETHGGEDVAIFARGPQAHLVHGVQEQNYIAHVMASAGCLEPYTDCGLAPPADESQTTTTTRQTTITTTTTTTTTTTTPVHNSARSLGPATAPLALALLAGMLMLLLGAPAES
Chain of DNA (cytosine-5)-methyltransferase 1 (P26358 whole entry): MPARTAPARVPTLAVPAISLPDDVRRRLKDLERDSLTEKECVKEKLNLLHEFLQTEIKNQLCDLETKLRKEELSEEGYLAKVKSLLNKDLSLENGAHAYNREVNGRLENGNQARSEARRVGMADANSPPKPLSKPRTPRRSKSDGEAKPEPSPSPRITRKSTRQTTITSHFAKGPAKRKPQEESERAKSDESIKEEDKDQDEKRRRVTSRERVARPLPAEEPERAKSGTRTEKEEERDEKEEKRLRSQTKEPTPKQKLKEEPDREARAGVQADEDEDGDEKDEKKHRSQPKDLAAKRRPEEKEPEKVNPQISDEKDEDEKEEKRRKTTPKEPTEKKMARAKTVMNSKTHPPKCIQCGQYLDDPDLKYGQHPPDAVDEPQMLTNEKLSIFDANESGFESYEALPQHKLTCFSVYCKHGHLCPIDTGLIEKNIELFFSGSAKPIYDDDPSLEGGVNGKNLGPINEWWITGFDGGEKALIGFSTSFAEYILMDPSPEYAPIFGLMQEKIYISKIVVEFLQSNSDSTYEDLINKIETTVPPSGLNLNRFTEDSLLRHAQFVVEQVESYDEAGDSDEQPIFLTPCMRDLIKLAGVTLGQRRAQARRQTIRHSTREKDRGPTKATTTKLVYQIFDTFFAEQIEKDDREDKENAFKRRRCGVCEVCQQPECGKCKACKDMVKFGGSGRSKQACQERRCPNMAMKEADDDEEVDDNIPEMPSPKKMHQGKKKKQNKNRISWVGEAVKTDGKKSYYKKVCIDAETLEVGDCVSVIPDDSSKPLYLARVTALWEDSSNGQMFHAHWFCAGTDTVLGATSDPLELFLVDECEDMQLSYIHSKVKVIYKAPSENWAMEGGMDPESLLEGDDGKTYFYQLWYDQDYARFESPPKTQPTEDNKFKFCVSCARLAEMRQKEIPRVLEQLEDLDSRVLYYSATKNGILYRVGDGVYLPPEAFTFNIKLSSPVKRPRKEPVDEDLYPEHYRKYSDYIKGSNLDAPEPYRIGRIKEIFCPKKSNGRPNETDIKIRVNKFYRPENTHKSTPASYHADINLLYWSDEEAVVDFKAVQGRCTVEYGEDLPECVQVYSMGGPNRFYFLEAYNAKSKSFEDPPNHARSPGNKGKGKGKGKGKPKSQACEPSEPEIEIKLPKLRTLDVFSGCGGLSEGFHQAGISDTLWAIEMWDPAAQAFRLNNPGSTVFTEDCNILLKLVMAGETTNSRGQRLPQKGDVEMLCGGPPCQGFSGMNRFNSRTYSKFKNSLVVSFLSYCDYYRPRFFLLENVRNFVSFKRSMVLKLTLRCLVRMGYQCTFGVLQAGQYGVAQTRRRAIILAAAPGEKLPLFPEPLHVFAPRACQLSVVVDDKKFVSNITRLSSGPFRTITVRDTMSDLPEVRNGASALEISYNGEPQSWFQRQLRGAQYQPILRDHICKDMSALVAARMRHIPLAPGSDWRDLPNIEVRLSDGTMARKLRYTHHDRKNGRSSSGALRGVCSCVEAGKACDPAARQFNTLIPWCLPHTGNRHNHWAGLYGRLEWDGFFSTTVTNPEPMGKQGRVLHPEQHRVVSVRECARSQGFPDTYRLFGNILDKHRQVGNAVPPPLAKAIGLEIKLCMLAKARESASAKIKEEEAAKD
Chain of Genome polyprotein (P29990 2492-3391 limits assumed): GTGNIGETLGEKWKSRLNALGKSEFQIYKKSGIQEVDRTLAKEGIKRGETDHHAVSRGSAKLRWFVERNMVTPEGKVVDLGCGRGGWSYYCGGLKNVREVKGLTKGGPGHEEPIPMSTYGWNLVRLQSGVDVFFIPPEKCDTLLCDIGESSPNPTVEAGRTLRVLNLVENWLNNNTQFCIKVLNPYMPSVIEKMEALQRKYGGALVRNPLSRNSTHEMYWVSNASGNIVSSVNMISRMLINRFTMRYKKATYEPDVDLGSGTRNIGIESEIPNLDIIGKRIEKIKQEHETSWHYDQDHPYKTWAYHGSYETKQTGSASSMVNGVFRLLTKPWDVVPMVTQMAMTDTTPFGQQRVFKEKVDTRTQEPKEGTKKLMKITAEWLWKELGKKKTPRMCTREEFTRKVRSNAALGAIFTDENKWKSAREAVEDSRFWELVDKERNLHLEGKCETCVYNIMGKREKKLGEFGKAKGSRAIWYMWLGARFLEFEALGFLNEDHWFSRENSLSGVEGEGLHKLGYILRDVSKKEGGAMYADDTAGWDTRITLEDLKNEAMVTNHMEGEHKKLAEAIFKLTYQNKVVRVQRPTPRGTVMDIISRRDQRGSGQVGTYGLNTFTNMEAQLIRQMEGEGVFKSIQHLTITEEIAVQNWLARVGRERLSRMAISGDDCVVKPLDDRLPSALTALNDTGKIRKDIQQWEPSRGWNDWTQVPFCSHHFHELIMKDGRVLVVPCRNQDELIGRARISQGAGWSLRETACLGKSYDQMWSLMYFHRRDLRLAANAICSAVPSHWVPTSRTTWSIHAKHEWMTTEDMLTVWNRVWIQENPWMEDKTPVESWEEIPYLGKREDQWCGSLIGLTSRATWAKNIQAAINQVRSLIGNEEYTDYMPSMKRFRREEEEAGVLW
Chain of Induced myeloid leukemia cell differentiation protein Mcl-1 (Q07820 whole entry): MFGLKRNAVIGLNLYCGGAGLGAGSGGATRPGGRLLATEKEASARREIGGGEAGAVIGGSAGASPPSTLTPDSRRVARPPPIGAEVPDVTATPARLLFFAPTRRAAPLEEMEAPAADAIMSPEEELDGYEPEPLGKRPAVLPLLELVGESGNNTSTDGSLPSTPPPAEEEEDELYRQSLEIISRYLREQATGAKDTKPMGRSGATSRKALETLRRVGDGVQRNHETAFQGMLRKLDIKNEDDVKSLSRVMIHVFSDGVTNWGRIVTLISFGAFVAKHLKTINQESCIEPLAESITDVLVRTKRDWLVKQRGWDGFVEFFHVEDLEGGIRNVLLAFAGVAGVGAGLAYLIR
Chain of Mu-type opioid receptor (P35372 whole entry): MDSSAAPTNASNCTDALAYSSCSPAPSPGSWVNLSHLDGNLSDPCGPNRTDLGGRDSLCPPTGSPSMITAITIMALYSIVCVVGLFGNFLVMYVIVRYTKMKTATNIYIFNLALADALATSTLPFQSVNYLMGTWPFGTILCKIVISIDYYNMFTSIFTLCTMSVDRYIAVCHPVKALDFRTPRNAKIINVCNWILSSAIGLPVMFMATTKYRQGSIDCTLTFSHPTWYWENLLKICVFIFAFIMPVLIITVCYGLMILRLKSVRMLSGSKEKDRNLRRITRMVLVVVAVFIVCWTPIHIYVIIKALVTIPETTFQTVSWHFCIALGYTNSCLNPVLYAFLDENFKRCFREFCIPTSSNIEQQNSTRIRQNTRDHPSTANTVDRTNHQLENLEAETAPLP
Chain of CAAX prenyl protease 2 (Homo sapiens, UniProt Q9Y256) (Q9Y256 whole entry): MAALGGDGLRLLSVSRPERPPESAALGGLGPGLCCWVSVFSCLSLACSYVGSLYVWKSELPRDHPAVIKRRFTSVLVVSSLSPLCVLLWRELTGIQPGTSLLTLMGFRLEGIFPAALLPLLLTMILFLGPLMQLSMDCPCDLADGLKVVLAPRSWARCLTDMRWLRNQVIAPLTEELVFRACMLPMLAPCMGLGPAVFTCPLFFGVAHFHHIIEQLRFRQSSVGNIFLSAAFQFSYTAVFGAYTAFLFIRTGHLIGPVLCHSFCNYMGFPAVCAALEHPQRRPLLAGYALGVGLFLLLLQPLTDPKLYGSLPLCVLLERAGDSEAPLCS

Structure (SMILES): CN1CCN(c2ccc(NC(=O)c3ccc(-c4ccccc4F)o3)cc2)CC1
- IC50 [1]: 24.8 µM (active)
- EC50 [2]: 32.6 µM (inactive)
- EC50 [3]: 26.3 µM (inactive)
- EC50 [4]: > 92.5 µM (inactive)
- CC50 [5]: > 25 µM (active)
- AC50 [6]: 26 µM (active)

Structure (SMILES): CS(=O)(=O)N1CCC2(CCN(c3ccccc3)CC2)CC1
- AC50 [7]: inconclusive
- AC50 [8]: inconclusive

Structure (SMILES): CN1C(=O)NC(=O)/C(=C\c2ccc([N+](=O)[O-])o2)C1=O
- EC50 [9]: 33.3 µM (active)
- EC50 [10]: 20.6 µM (active)
- IC50 [11]: > 100 µM (inactive)
- IC50 [12]: > 100 µM (inactive)
- IC50 [13]: > 100 µM (inactive)
- IC50 [14]: 42.6 µM (active)
- IC50 [15]: 2.08 µM (active)

Structure (SMILES): COc1cc2c(cc1OC)C(C)=NC1(CCCCC1)C2
- AC50 [16]: 6.87 µM (active)
- AC50 [17]: 8.72 µM (active)

Structure (SMILES): CC(C)Oc1ccc(C(CCNCc2ccc(O)cc2)c2ccccc2)cc1 (configuration not stated)
- AC50 [18]: 12.8 µM (active)
- AC50 [19]: 18.8 µM (active)

Structure (SMILES): COc1ccc(-c2c(C)oc3c(CN4CCN(C)CC4)c(O)ccc3c2=O)cc1
- AC50 [16]: 28.6 µM (active)
- AC50 [20]: 3.72 µM (active)

Structure (SMILES): O=C(/C=C/c1cccc([N+](=O)[O-])c1)c1cccs1
- EC50 [21]: 14.3 µM (active)
- EC50 [22]: 10.9 µM (active)
- AC50 [18]: 15.3 µM (active)
- AC50 [23]: 4.16 µM (active)
- AC50 [24]: > 35 µM (active)
- AC50 [19]: > 35 µM (active)

Structure (SMILES): Cc1ccc(-n2cc(CNCCCn3ccnc3C)c(-c3ccc(F)cc3)n2)cc1
- EC50 [25]: 1.77 µM (active)
- EC50 [26]: 14.4 µM (active)
- AC50 [18]: 7.58 µM (active)
- AC50 [24]: 21.2 µM (active)
- AC50 [27]: 20.6 µM (active)
- AC50 [28]: 16.7 µM (active)

Structure (SMILES): O=C1CSC(=S)N1/N=C/c1ccc(O)c(O)c1O
- EC50 [9]: 5.17 µM (inconclusive)
- EC50 [10]: 0.668 µM (inconclusive)
- IC50 [29]: 7.79 µM (active)
- IC50 [30]: 1.17 µM (active)
- IC50 [11]: 4.15 µM (active)
- IC50 [12]: 58.5 µM (active)
- IC50 [13]: > 100 µM (inactive)

Structure (SMILES): CCOC(=O)C1=C(C)N=C2CC(c3cccs3)CC(O)=C2C1c1cccs1 (configuration not stated)
- EC50 [31]: 39.3 µM (active)
- IC50 [32]: 36 µM (not active)
